{"source": "a melting point compilation (Tetko et al.; mined from patent text by program, amines drawn as free bases though some values may be those of a salt)"}
{"units": {"melting point": "°C"}}
{"smiles": "CC(C)N1CCN=C1c1ccccc1C(=O)c1ccc(Cl)cc1", "melting point": "114 to 117"}
{"smiles": "C=C(C)c1ccc(C(=O)C2=C(O)C(=O)N(c3ccc(C)nn3)C2c2ccc(OC(F)(F)F)cc2)cc1", "note": "(stereo unspecified)", "melting point": 253}
{"smiles": "Nc1ccc(Oc2c(NCc3ccco3)cc(C(=O)O)cc2S(N)(=O)=O)cc1", "melting point": "233 to 235"}
{"smiles": "CC1(c2ccccc2)Cc2cc(O)c(Cl)c(Cl)c2C1O", "note": "(stereo unspecified)", "melting point": "163 to 165"}
{"smiles": "CCCc1nc2ccc(C#N)cc2n1Cc1ccccc1Cl", "melting point": "124 to 126"}
{"smiles": "Cc1ccccc1-n1c(-c2cc(-c3ccc(S(C)(=O)=O)cc3)c(N3CCOCC3)s2)nc2ccccc2c1=O", "melting point": "255 to 258"}
{"smiles": "CCOC(=O)Nc1nc(C)c(-c2nc3ccccc3c(=O)n2-c2cccc(C)c2)s1", "melting point": "210 to 211"}
{"smiles": "O=[N+]([O-])c1cc(-c2nc3n(c2Cl)CCCC3)c(Cl)cc1Cl", "melting point": "111 to 112"}
{"smiles": "O=C(O)CC[C@H](NC(=O)Nc1ccc(N(CCCl)CCCl)cc1)C(=O)O", "melting point": "116 to 118"}
{"smiles": "CC(C(=O)O)c1ccc(Oc2ccc(F)cc2F)cc1", "note": "(stereo unspecified)", "melting point": "105 to 106"}
{"smiles": "CC(C)[C@H](NC(=O)OCc1ccccc1)[C@H](O)C(F)(F)F", "melting point": "103 to 104"}
{"smiles": "Cn1cc(-c2cccc(N3Cc4cc(C(C)(C)C)ccc4C3=O)c2CO)cc(Nc2ccn(C3CC3)n2)c1=O", "melting point": "173 to 175"}
{"smiles": "CCOC(=O)C(C)(C)Oc1ccc(OCc2oc(-c3ccc(C(F)(F)F)cc3)cc2C(=O)O)cc1", "melting point": "87 to 88"}
{"smiles": "CCOCc1nc2c(N)nc3cccnc3c2n1CC1(O)CC1", "melting point": "178 to 179"}
{"smiles": "CCOC(=O)C(C)(C)Oc1ccc(-c2ccc(CCNC(=O)c3ccccc3)cc2)cc1", "melting point": 100}
{"smiles": "CCOCC1COc2c(cc(N)cc2C(F)(F)F)O1", "note": "(stereo unspecified)", "melting point": "96 to 98"}
{"smiles": "CN1N=CC=Cc2ccccc21", "melting point": "190 to 192"}
{"smiles": "CCCCC1=N/C(=C\\c2c[nH]c3ncc(Cl)cc23)C(=O)N1C", "melting point": "295 to 300"}
{"smiles": "O=C(O)CCCCCc1cccc2c(I)ncn12", "melting point": "163 to 165"}
{"smiles": "CN(CC[C@H]1CC[C@H](C(=O)O)CC1)c1nccc(C(F)(F)F)n1", "melting point": "110 to 112"}
{"smiles": "O=C(Nc1cccc(C(F)(F)F)c1)N1CCN(Cc2ccc(Nc3ccnc4cc(C(F)(F)F)ccc34)cc2)CC1", "melting point": "198 to 200"}
{"smiles": "Cc1[nH]cnc1CSCCNc1nnc(Cc2cccnc2)c(=O)[nH]1", "melting point": "232 to 233"}
{"smiles": "CN1C(=O)CN(CCC(=O)O)C1=O", "melting point": 109}
{"smiles": "Cc1ccc(-c2ccc3c(c2)C=C(C(=O)Nc2ccc(CN4CCCCC4)cc2)CO3)cc1", "melting point": "196 to 197"}
{"smiles": "COC(=O)/C=C(C)/C=C/C(F)=C(C)/C=C/C1(C)C=C(C)OC1C", "note": "(stereo unspecified)", "melting point": "122 to 126"}
{"smiles": "CCOC(=O)C(C)Sc1ccc(-c2nc(=O)c3ccccc3s2)cn1", "note": "(stereo unspecified)", "melting point": 116}
{"smiles": "CCn1cc(C(=O)O)c(=O)c2cc(F)c(-n3cccc3)cc21", "melting point": "251 to 252"}
{"smiles": "O=S(=O)(Nc1cccc(Br)n1)c1cc(S(=O)(=O)Nc2cccc(Br)n2)c2ccccc2c1", "melting point": "205 to 208"}
{"smiles": "CC(C)NC(=O)Nc1ccnnc1", "melting point": "206 to 209"}
{"smiles": "COc1cc(C(C)C)c2c(c1)S(=O)(=O)N(COc1cc(C#N)nn1-c1ccc(Cl)cc1)C2=O", "melting point": 135}
{"smiles": "N#Cc1ccc2c(c1)N=Cc1ccccc1O2", "melting point": "158 to 159"}
{"smiles": "CCOC(=O)CCCNC1=NS(=O)(=O)c2ccccc21", "melting point": "125 to 127"}
{"smiles": "CSC1=C([N+](=O)[O-])CN(Cc2ccccc2)CN1", "melting point": "173 to 174"}
{"smiles": "N#Cc1cnc2c(sc3c(N)cccc32)c1Nc1cccc(Br)c1", "melting point": "256 to 258"}
{"smiles": "CCN(CC)CCN1Cc2nc3ccccc3c(=O)n2-c2ccccc2C1=O", "melting point": "117 to 119"}
{"smiles": "COC(=O)COc1cc2c(c3c1c(C(=O)C(N)=O)c(C)n3Cc1ccccc1Br)CCC2", "melting point": "200 to 207"}
{"smiles": "CC(C)(C)c1cc(S[C@@H]2CCCC[C@H]2O)cc(C(C)(C)C)c1O", "note": "(relative stereo)", "melting point": 91}
{"smiles": "CC(C)c1cccc(C(C)C)c1NC(=O)CCN1CCN(CCCSc2nc3ccccc3o2)CC1", "melting point": "93 to 95"}
{"smiles": "O=C(O)[C@H](Cc1c[nH]c2ccccc12)NS(=O)(=O)c1ccc2c(c1)Sc1ccccc1O2", "melting point": "120 to 130"}
{"smiles": "CCc1ccc2c(=O)cc(C(=O)O)[nH]c2c1", "melting point": 271}
{"smiles": "O=C1N=CC(OCC2CCC2)(C(F)(F)F)c2cc(F)ccc2N1", "note": "(stereo unspecified)", "melting point": "190 to 191"}
{"smiles": "COc1ccc2c(c1)c(Cc1nc(-c3ccc([N+](=O)[O-])cc3)cs1)c(C)n2C(=O)c1ccc(Cl)cc1", "melting point": 219}
{"smiles": "COC(=O)C1=C(C)NN=C(c2cccs2)C1c1ccccc1", "note": "(stereo unspecified)", "melting point": 194}
{"smiles": "O=C(Cn1cc(Cl)cnc1=O)c1ccc([N+](=O)[O-])cc1", "melting point": "232 to 236"}
{"smiles": "O=C(O)CCc1ccccc1OCCC(c1ccccc1)(c1ccccc1)c1ccccc1", "melting point": "118 to 120"}
{"smiles": "COC(=O)Cc1ccc(OCCNC(=O)C2Cc3ccccc3N2S(=O)(=O)c2ccc(-c3cc(C(F)(F)F)ccc3Cl)cc2)c(F)c1", "note": "(stereo unspecified)", "melting point": "56 to 62"}
{"smiles": "COc1ccccc1Oc1c(NS(=O)(=O)c2ccc(C(C)(C)C)cc2)nc(CO)nc1OCCOc1ncc(Br)cn1", "melting point": "161 to 162"}
{"smiles": "CC(C)(C)OC(=O)C[C@H](NC(=O)c1cccc(NC(=O)Cc2ccc(C(N)=S)cc2)c1)C(=O)N[C@@H](Cc1ccccc1)C(=O)OC(C)(C)C", "melting point": 99}
{"smiles": "COc1cccc2c(CCCNC3COc4c(F)ccc(C(N)=O)c4C3)coc12", "note": "(stereo unspecified)", "melting point": "163 to 166"}
{"smiles": "COC(=O)C(Oc1cc(O)ccc1C#N)c1ccccc1C", "note": "(racemic)", "melting point": "114 to 121"}
{"smiles": "COc1cc(-c2csc(NS(=O)(=O)c3ccccc3)n2)ccc1OCc1ccccc1", "melting point": "152 to 155"}
{"smiles": "COc1cc2[nH]ccc2cc1OCCCN1CCC(c2noc3cc(F)ccc23)CC1", "melting point": "186 to 188"}
{"smiles": "CCCn1nc(-c2cc(C(C)(C)C)c(O)c(C(C)(C)C)c2)c2cccnc21", "melting point": "97 to 98"}
{"smiles": "N=C(N)NCCc1ccc(OCCCCC(c2ccccc2)(c2ccccc2)c2ccccc2)cc1", "melting point": "119 to 121"}
{"smiles": "CNc1nc2c(C)cccc2c2c1ccn2-c1ccccc1C", "melting point": "129 to 130"}
{"smiles": "O=C(Nc1ccc(C(F)(F)F)cc1)c1ccccc1SSc1ccccc1C(=O)Nc1ccc(C(F)(F)F)cc1", "melting point": "272 to 275"}
{"smiles": "COc1ccc(Cc2nc3n(c2Cc2ccc(OC)cc2)CCS3)cc1", "melting point": "154 to 156"}
{"smiles": "COc1cc(F)ccc1N1CCN(CCCn2c(=O)[nH]c3c(c2=O)CCCC3)CC1", "melting point": "230 to 232"}
{"smiles": "Cc1ccc(S(=O)(=O)N2CCc3c(sc(N)c3C(=O)c3ccccc3)C2)cc1", "melting point": "165 to 167"}
{"smiles": "OC(COc1ccccc1)CN1CCN(c2nc3nccc(-c4ccncc4)n3n2)CC1", "note": "(stereo unspecified)", "melting point": "143 to 145"}
{"smiles": "CC1(C)CCC(C)(C#N)c2ccccc21", "note": "(stereo unspecified)", "melting point": 46}
{"smiles": "CCCCC(=O)Nc1nc2ccc(Cl)cc2nc1N", "melting point": "224 to 228"}
{"smiles": "Cc1cc2c(cc1O)C(C)(C)CC1(CC(C)(C)c3cc(OCCCC(=O)O)c(C)cc3O1)O2", "note": "(stereo unspecified)", "melting point": "173 to 174"}
{"smiles": "Cc1cccc(Nc2cc(Cl)nc(Cl)n2)c1C", "melting point": "204 to 206"}
{"smiles": "C#CC1(OC(=O)NCc2ccccc2)CCN(CCC=C(c2ccc(F)cc2)c2ccc(F)cc2)CC1", "melting point": "53 to 54"}
{"smiles": "N#Cc1cnn(-c2ccc(Cl)c(Cl)c2Cl)c1N(C(=O)Oc1ccccc1)C(=O)Oc1ccccc1", "melting point": "206 to 208"}
